According to patent US5486526A, “Histamine H3 -receptor antagonists and therapeutic uses thereof” (The University of Toledo, priority 1993, dated 1996):
Read-outs that look alike come from different tables or passages of the source.

Legend:
[1] = test system: H3 receptors in the cortex; experiment: Blood-brain barrier penetration by ex vivo binding of [^3 H]-N^α -methylhistamine in rat cortex
Description: Blood-brain barrier penetration in rats was assessed by an ex vivo binding procedure. Young adult male Long-Evans rats were injected i.p. with saline or H3 antagonists in saline. At various times after injection animals were sacrificed, the cortex was removed, homogenized in 50 mM Na/K-phosphate buffer, pH 7.4, and the binding of 1 nM [^3 H]-N^α -methylhistamine was measured using 400 μg protein of the homogenate. Nonspecific binding was accounted for by the inclusion of excess thioperamide in some samples. Under these conditions, the binding was approximately 90% specific.

Male albino CF-1 mice = experiment: Behavioral effects in mice: sleep induced by (R)α-methylhistamine; type: in vivo, mouse
Description: (§1) The overall strategy to show central nervous system antagonist activity was to challenge effects of the agonist (R)α-methylhistamine. Therefore, the first objective was to establish a dose response curve for behavioral effects of (R)α-methylhistamine. Male albino CF-1 mice weighing 20-30 g were used. Saline or (R)α-methylhistamine in saline was injected i.p. in a volume ≤0.4 ml. […] Animals were scored for the presence (1) or absence (0) of the behavior and the results were reported as the accumulated score for a 30 minute period (maximum score=9).
(§2) To assess the effects of antagonists, they were administered with the (R)α-methylhistamine in saline.

histamine H3 receptor = biological target: T1, histamine H3 receptor (Rattus norvegicus, UniProt Q9QYN8); experiment: Inhibition of [^3 H]-N-alpha-methylhistamine binding to rat brain membranes
T1 construct: from tissue
T1 sequence (Q9QYN8 whole entry): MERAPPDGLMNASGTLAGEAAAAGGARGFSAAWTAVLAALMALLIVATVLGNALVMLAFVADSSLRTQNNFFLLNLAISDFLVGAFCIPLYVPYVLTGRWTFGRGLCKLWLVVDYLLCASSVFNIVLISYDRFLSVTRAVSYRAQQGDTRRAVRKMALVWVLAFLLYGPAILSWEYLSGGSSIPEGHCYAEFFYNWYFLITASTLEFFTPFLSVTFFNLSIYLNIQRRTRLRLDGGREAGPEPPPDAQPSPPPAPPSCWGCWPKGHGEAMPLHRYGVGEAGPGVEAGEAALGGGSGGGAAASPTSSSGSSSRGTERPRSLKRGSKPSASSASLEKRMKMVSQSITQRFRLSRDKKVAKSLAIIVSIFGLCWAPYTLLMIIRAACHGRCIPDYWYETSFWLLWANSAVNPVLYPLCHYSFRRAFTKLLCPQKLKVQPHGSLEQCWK
Description: A series of compounds were prepared and tested for their histamine H3 receptor antagonist activity. The antagonist activity of the compounds was detected by observing inhibition of (^3 H)-N-(alpha)methylhistamine activity on rat brain membranes.
The various compounds were tested for the ability to bind to the histamine H3 receptor. A binding assay in a rat brain membrane preparation, based on inhibition of binding of [^3 H]-N-alpha-methylhistamine using excess unlabeled alpha-methylhistamine to account for nonspecific binding, was developed.

histamine H3 receptors = settings: in vitro; cited from earlier work
brain in rats = settings: cited from earlier work
Adenosine = experiment: NOVASCREEN receptor selectivity assay: Adenosine; type: binding; settings: 10^-5 M
Chloride = experiment: NOVASCREEN receptor selectivity assay: Chloride; type: binding; settings: 10^-5 M
CCK Central = experiment: NOVASCREEN receptor selectivity assay: CCK Central; type: binding; settings: 10^-5 M
Glycine [2] = experiment: NOVASCREEN receptor selectivity assay: Glycine (excitatory); type: binding; settings: 10^-5 M
NMDA = experiment: NOVASCREEN receptor selectivity assay: NMDA; type: binding; settings: 10^-5 M
Bombesin = experiment: NOVASCREEN receptor selectivity assay: Bombesin; type: binding; settings: 10^-5 M
EGF = experiment: NOVASCREEN receptor selectivity assay: EGF; type: binding; settings: 10^-5 M
Inositol Triphosphate [3] = experiment: NOVASCREEN receptor selectivity assay: Inositol Triphosphate; type: binding; settings: 10^-5 M
[4] = test system: Protein Kinase C Phorbol Ester; experiment: NOVASCREEN receptor selectivity assay: Protein Kinase C, Phorbol Ester; type: binding; settings: 10^-5 M
Serotonin 1 = experiment: NOVASCREEN receptor selectivity assay: Serotonin 1; type: binding; settings: 10^-5 M
VIP = experiment: NOVASCREEN receptor selectivity assay: VIP; type: binding; settings: 10^-5 M
GABAB = experiment: NOVASCREEN receptor selectivity assay: GABAB; type: binding; settings: 10^-5 M
Angiotensin = experiment: NOVASCREEN receptor selectivity assay: Angiotensin; type: binding; settings: 10^-5 M
Kainate = experiment: NOVASCREEN receptor selectivity assay: Kainate; type: binding; settings: 10^-5 M
NPY = experiment: NOVASCREEN receptor selectivity assay: NPY; type: binding; settings: 10^-5 M
ANF (rat) = experiment: NOVASCREEN receptor selectivity assay: ANF (rat); type: binding; settings: 10^-5 M
NGF = experiment: NOVASCREEN receptor selectivity assay: NGF; type: binding; settings: 10^-5 M
PCP = experiment: NOVASCREEN receptor selectivity assay: PCP; type: binding; settings: 10^-5 M
Quisqualate = experiment: NOVASCREEN receptor selectivity assay: Quisqualate; type: binding; settings: 10^-5 M
[5] = test system: Adenylate Cyclase Forskolin; experiment: NOVASCREEN receptor selectivity assay: Adenylate Cyclase, Forskolin; type: binding; settings: 10^-5 M
GABAA = experiment: NOVASCREEN receptor selectivity assay: GABAA; type: binding; settings: 10^-5 M
Male Sprague-Dawley rats = experiment: Food intake in 24-hour-fasted rats; type: in vivo, rat
Description: Male Sprague-Dawley rats (200-300 grams) were used in all experiments. Rats were fasted for 24 hours prior to all experiments. Water was provided ad lib. Rats were singly placed in a ventilated plastic circular rat metabolism chamber with a stainless steel wire mess grid flood equipped with food and H2 O attachments. A measured quantity of food (50 grams) and water (100 mls) was supplied through attachments to the metabolism chambers. Food and water intake was measured at the 2, 4 and 6 hour time periods.
Final volumes were 1.0 ml/kg. Subsequently, they were left undisturbed for the experimental period except when the food and H2 O attachments were briefly removed for measurement of food and water intake. At the completion of the experiment, animals were returned to their home cages. The results are found in Table III and FIGS. 7 and 8.

Arg-Vasopressin V1 = experiment: NOVASCREEN receptor selectivity assay: Arg-Vasopressin V1; type: binding; settings: 10^-5 M
Calcium [6] = type: binding; settings: 10^-5 M
Calcium [7] = experiment: NOVASCREEN receptor selectivity assay: Calcium (Nifedipine); type: binding; settings: 10^-5 M
CCK Peripheral = experiment: NOVASCREEN receptor selectivity assay: CCK Peripheral; type: binding; settings: 10^-5 M
Benzodiazephine = experiment: NOVASCREEN receptor selectivity assay: Benzodiazephine; type: binding; settings: 10^-5 M
Potassium = experiment: NOVASCREEN receptor selectivity assay: Potassium; type: binding; settings: 10^-5 M
Dopamine 2 = experiment: NOVASCREEN receptor selectivity assay: Dopamine 2; type: binding; settings: 10^-5 M
[8] = Toxicity observed in testing to date; type: in vivo; settings: all testing to date, even at high doses
Dopamine 1 = experiment: NOVASCREEN receptor selectivity assay: Dopamine 1; type: binding; settings: 10^-5 M
Serotonin 2 = experiment: NOVASCREEN receptor selectivity assay: Serotonin 2; type: binding; settings: 10^-5 M
Somatostatin = experiment: NOVASCREEN receptor selectivity assay: Somatostatin; type: binding; settings: 10^-5 M
MK-801 = experiment: NOVASCREEN receptor selectivity assay: MK-801; type: binding; settings: 10^-5 M
H3 -receptor = experiment: In vivo assays of H3-receptor antagonist effect (overall)
Description: as §1, §2

Neurotensin = experiment: NOVASCREEN receptor selectivity assay: Neurotensin; type: binding; settings: 10^-5 M
[9] = test system: adenosine, excitory or inhibitory amino acid, dopamine, serotonin, or a broad range of petidergic receptors, or to ion channel proteins, peptide factor or …; experiment: NOVASCREEN receptor selectivity study (whole panel); type: binding; settings: 10^-5 M
Substance P = experiment: NOVASCREEN receptor selectivity assay: Substance P; type: binding; settings: 10^-5 M
Glycine [10] = experiment: NOVASCREEN receptor selectivity assay: Glycine (inhibitory); type: binding; settings: 10^-5 M
Substance K = experiment: NOVASCREEN receptor selectivity assay: Substance K; type: binding; settings: 10^-5 M
peptic ulcer patients = settings: cited from earlier work
[11] = test system: animal toxicity studies or in clinical usage; settings: cited from earlier work
Inositol Triphosphate [12] = settings: reference compound; cited from earlier work

S=C(NC1CCCCC1)N1CCC(c2cnc[nH]2)CC1 [Thioperamide, reference compound]
binding of [^3 H]-N^α -methylhistamine to cortex (in words) ([1]; 2, 5, and 10 mg/kg i.p., 15 min after injection): decreased the binding of [^3 H]-N^α -methylhistamine
penetration of the blood-brain barrier (in words) ([1]; thioperamide 2, 5, 10 mg/kg i.p., 15 min): able to penetrate the blood-brain barrier
soporific effect of (R)α-methylhistamine (in words) (Male albino CF-1 mice; 30 mg/kg of (R)α-methylhistamine): able to inhibit the soporific effect
behavior with antagonist alone (in words) (Male albino CF-1 mice; in the absence of the α-methylhistamine H3 receptor agonist): animals were very active, exhibiting normal behaviors
IC50 (histamine H3 receptor): 4 ± 0.6 nM
IC50 (histamine H3 receptor; read-out: affinity, repeated in text): 4 nM
Ki (histamine H3 receptors): 4.3 nM
dose required in vivo to inhibit histamine release from the brain (in words) (brain in rats): relatively high doses are required in vivo

O=C(CCCCC1CCCCC1)N1CCC(c2c[nH]cn2)CC1 [Compound 1, 4-(1-cyclohexylvaleroyl-4-piperidyl)-1H-imidazole]
Initial Percent Inhibition (Average; N = 2) (Adenosine): -3.0%
Initial Percent Inhibition (Average; N = 2) (Chloride): -3.4%
Initial Percent Inhibition (Average; N = 2) (CCK Central): 18.6%
Initial Percent Inhibition (Average; N = 2) (Glycine [2]): 1.8%
Initial Percent Inhibition (Average; N = 2) (NMDA): -4.5%
Initial Percent Inhibition (Average; N = 2) (Bombesin): -5.5%
Initial Percent Inhibition (Average; N = 2) (EGF): 18.1%
penetration of the blood-brain barrier (in words) ([1]; 50 and 70 mg/kg, one hour after injection): penetrates the blood-brain barrier one hour after injections
penetration of the blood-brain barrier compared with thioperamide (in words) ([1]; taking into account the difference in affinity): penetrates the blood-brain barrier at least as well as thioperamide
Initial Percent Inhibition (Average; N = 2) (Inositol Triphosphate [3]): 9.2%
Initial Percent Inhibition (Average; N = 2) [4]: 0.9%
Initial Percent Inhibition (Average; N = 2) (Serotonin 1): -3.6%
Initial Percent Inhibition (Average; N = 2) (VIP): 17.1%
Initial Percent Inhibition (Average; N = 2) (GABAB): 0.0%
Initial Percent Inhibition (Average; N = 2) (Angiotensin): 6.5%
Initial Percent Inhibition (Average; N = 2) (Kainate): 42.1%
Initial Percent Inhibition (Average; N = 2) (NPY): -8.7%
Initial Percent Inhibition (Average; N = 2) (ANF (rat)): 0.1%
Initial Percent Inhibition (Average; N = 2) (NGF): 17.1%
Initial Percent Inhibition (Average; N = 2) (PCP): 9.7%
soporific effect of (R)α-methylhistamine (in words) (Male albino CF-1 mice; 25 mg/kg (R)α-methylhistamine): inhibited the soporific effect
Initial Percent Inhibition (Average; N = 2) (Quisqualate): -1.8%
Initial Percent Inhibition (Average; N = 2) [5]: 2.1%
Initial Percent Inhibition (Average; N = 2) (GABAA): 0.6%
food intake 2 HR (Male Sprague-Dawley rats; 3 mg/kg i.p.): 5.687
food intake 4 HR (Male Sprague-Dawley rats; 3 mg/kg i.p.): 7.333
food intake 2 HR (Male Sprague-Dawley rats; 10 mg/kg i.p.): 2.000
food intake 4 HR (Male Sprague-Dawley rats; 10 mg/kg i.p.): 5.167
food intake 2 HR (Male Sprague-Dawley rats; 30 mg/kg i.p.): 1.167
food intake 4 HR (Male Sprague-Dawley rats; 30 mg/kg i.p.): 2.333
food intake 6 HR (Male Sprague-Dawley rats; 30 mg/kg i.p.): 5.000
Initial Percent Inhibition (Average; N = 2) (Arg-Vasopressin V1): 10.1%
Initial Percent Inhibition (Average; N = 2) (Calcium [6]): 1.9%
Initial Percent Inhibition (Average; N = 2) (Calcium [7]): 8.1%
Initial Percent Inhibition (Average; N = 2) (CCK Peripheral): 6.9%
Initial Percent Inhibition (Average; N = 2) (Benzodiazephine): 2.7%
Initial Percent Inhibition (Average; N = 2) (Potassium): 7.7%
Initial Percent Inhibition (Average; N = 2) (Dopamine 2): 3.5%
toxicity (in words) [8]: no toxicity
Initial Percent Inhibition (Average; N = 2) (Dopamine 1): 6.4%
Initial Percent Inhibition (Average; N = 2) (Serotonin 2): 10.5%
Initial Percent Inhibition (Average; N = 2) (Somatostatin): 4.1%
Initial Percent Inhibition (Average; N = 2) (MK-801): -8.6%
H3 -receptor antagonist effect (in words) (H3 -receptor): effective as an H3 -receptor antagonist
Initial Percent Inhibition (Average; N = 2) (Neurotensin): -10.5%
binding to panel receptors (in words) [9]: no significant binding
Initial Percent Inhibition (Average; N = 2) (Substance P): 20.0%
Initial Percent Inhibition (Average; N = 2) (Glycine [10]): 17.4%
Initial Percent Inhibition (Average; N = 2) (Substance K): 29.2%

C/N=C(\S)NCCSCc1[nH]cnc1C [metiamide]
granulocytopenia (in words) (peptic ulcer patients): low incidence of granulocytopenia

CN/C(=N/CCSCc1nc[nH]c1C)NC#N [cimetidine]
granulocytopenia or other side effects (in words) [11]: did not cause granulocytopenia, or any other side effects

O=P(O)(O)O[C@@H]1[C@H](O)[C@H](O)[C@@H](OP(=O)(O)O)[C@H](OP(=O)(O)O)[C@H]1O [IP3]
Ki (Inositol Triphosphate [12]): 12.5 nM
